Values after ≈ are worked out from the molar mass of the structure shown.
Conditions: buffer; pH 7.4; 200.0 µM
For `Cc1cc(NC(=O)CSc2ncc(C(F)(F)F)cc2Cl)no1`, the solubility kinetic was 1.2 µg/mL (≈ 3.41 µM). With `CN1c2ccc(Cl)cc2C(=O)NC1c1ccc([N+](=O)[O-])s1` (stereo not given) the solubility kinetic was 30.1 µg/mL (≈ 93 µM). Compound `CCC(=O)c1c(NC(C)C)cc(C)oc1=O` has a solubility kinetic greater than 33.5 µg/mL. In the case of `COP(=O)(NC(=O)C(Cl)(Cl)Cl)OC`, the solubility kinetic is reported as greater than 40.6 µg/mL. Compound `CCN(C(=O)c1cc(Cl)ccc1Cl)C1CCS(=O)(=O)C1` (stereo not given) has a solubility kinetic greater than 50.4 µg/mL. Compound `CC1CCN(C(=O)COC(=O)/C=C/c2ccco2)CC1` has a solubility kinetic greater than 41.6 µg/mL. `Cc1[nH]c2ccccc2c1C(=O)CN1CC(C)OC(C)C1` (stereo not given) showed a solubility kinetic of 39.4 µg/mL (≈ 138 µM). In the case of `O=[N+]([O-])c1ccc2c(c1)Nc1nc3ccccc3nc1N2`, the solubility kinetic is reported as 1.4 µg/mL (≈ 5.01 µM). `Cn1cccc1C(=O)c1cccc([N+](=O)[O-])c1` showed a solubility kinetic of 14.3 µg/mL (≈ 62.1 µM). In the case of `CSc1sccc1/C=N/O`, the solubility kinetic is reported as 18.2 µg/mL (≈ 105 µM). Compound `COc1cc(C(=S)N2CCCC2)cc(OC)c1OC` has a solubility kinetic greater than 42.2 µg/mL. Work on `COc1ccc(CC(=O)N(Cc2ccccc2)C(C)C)cc1` yielded a solubility kinetic of 40.7 µg/mL (≈ 137 µM). In the case of `Cc1ccc(C(=O)N/C(=C/c2ccco2)C(=O)N2CCC(C)CC2)cc1`, the solubility kinetic is reported as greater than 52.9 µg/mL. For `O=C(CNC(=O)c1ccc(Cl)cc1)c1ccc(Cl)cc1`, the solubility kinetic was 9 µg/mL (≈ 29.2 µM). For `COc1ccc(-c2nc3ncccc3o2)cc1NC(=O)c1cccs1`, the solubility kinetic was 0.3 µg/mL (≈ 0.854 µM). For `CC1CCCCC1NC(=O)COC(=O)COc1ccccc1F` (stereo not given), the solubility kinetic was 35.3 µg/mL (≈ 109 µM). `Cc1ccccc1NC(=O)/C=C/c1cccs1` gave a solubility kinetic of 19.5 µg/mL (≈ 80.1 µM). `OCCNC(=S)Nc1cccc(Cl)c1Cl` showed a solubility kinetic greater than 39.8 µg/mL. `COc1ccc(OC)c(NC(=O)Nc2ccc3c(c2)OCO3)c1` gave a solubility kinetic of 2.3 µg/mL (≈ 7.27 µM). Work on `Cc1cccc(C(=O)OCC(=O)c2csc(N3CCCCC3)n2)c1[N+](=O)[O-]` yielded a solubility kinetic of 2.8 µg/mL (≈ 7.19 µM). Compound `CCOc1cc(C(F)(F)F)cnc1/C(N)=N/O` has a solubility kinetic of 36.9 µg/mL (≈ 148 µM). For `Cc1ccc2nc(N3C(=O)CNC3=S)sc2c1`, the solubility kinetic was 11.9 µg/mL (≈ 45.2 µM). With `O=C(COc1cccnc1[N+](=O)[O-])Nc1cccc(Br)c1` the solubility kinetic was 2.7 µg/mL (≈ 7.67 µM). In the case of `O=C(NCc1ccco1)c1cc([N+](=O)[O-])ccc1Cl`, the solubility kinetic is reported as 28.3 µg/mL (≈ 101 µM). `CCCn1c(C(C)NS(=O)(=O)c2ccccc2)n[nH]c1=S` (stereo not given) showed a solubility kinetic greater than 49 µg/mL. For `Cc1cc(NC(=S)Nc2cccnc2)ccc1Br`, the solubility kinetic was 40.7 µg/mL (≈ 126 µM). For `Cc1ccc(NC(=O)N2CCN(c3ncccc3C(F)(F)F)CC2)cc1`, the solubility kinetic was 1.5 µg/mL (≈ 4.12 µM). For `Cc1cc(C)n2nc(C(=O)OCC(=O)N(CC(C)C)C3CCS(=O)(=O)C3)nc2n1` (stereo not given), the solubility kinetic was greater than 63.5 µg/mL. With `COc1ccc(/C=C/C(=O)OCC(=O)NC2CCCC2)cc1OC` the solubility kinetic was 48.6 µg/mL (≈ 146 µM). `O=S(=O)(c1ccc2c(c1)CCCC2)N1CCNCC1` gave a solubility kinetic greater than 42.1 µg/mL. `Clc1ccccc1-c1nc(-c2ccncc2)no1` gave a solubility kinetic of 7 µg/mL (≈ 27.2 µM). For `CC(=O)N(C)c1ccc(NC(=O)Nc2ccc(Cl)cc2)cc1`, the solubility kinetic was 45.2 µg/mL (≈ 142 µM). For `COc1cc(/C=C/C(=O)OCC(=O)NCCCc2ccccc2)cc(OC)c1OC`, the solubility kinetic was 27.8 µg/mL (≈ 67.2 µM). `Cc1ccc(CNC(=O)CSc2nc3ccccc3c(=O)n2CC2CCCO2)cc1` (stereo not given) showed a solubility kinetic of 4.5 µg/mL (≈ 10.6 µM). In the case of `O=[N+]([O-])c1ccc2cn[nH]c2c1`, the solubility kinetic is reported as greater than 24.5 µg/mL. Work on `O=C(NCCCn1ccnc1)/C(=C/c1ccco1)NC(=O)c1cccs1` yielded a solubility kinetic of 50.1 µg/mL (≈ 135 µM). Work on `O=C(COC(=O)c1cccnc1Cl)NCC1CCCO1` (stereo not given) yielded a solubility kinetic greater than 44.8 µg/mL. `CC(C)c1ccc(NC(=O)/C(C#N)=C/c2ccncc2)cc1` gave a solubility kinetic of 4.6 µg/mL (≈ 15.8 µM). For `O=C(CN1C(=O)NC2(CCCC2)C1=O)NCCc1ccccc1`, the solubility kinetic was 44.8 µg/mL (≈ 142 µM). `OCCCc1nc2ccccc2n1Cc1ccccc1` showed a solubility kinetic greater than 40 µg/mL. `CCN(CC)CCOC(=O)C(c1ccccc1)c1ccccc1.Cl` gave a solubility kinetic greater than 52.2 µg/mL. Compound `CN1CCc2c1nc1ccccc1c2NC(=O)CN1CCCC1` has a solubility kinetic of 28.9 µg/mL (≈ 93.1 µM). `Cc1ccc(CSc2nccc(-c3c(C)nc4ccccn34)n2)cc1` gave a solubility kinetic of 1.6 µg/mL (≈ 4.62 µM). In the case of `O=C(NCCNC(=O)c1ccc(Cl)cc1Cl)c1ccccn1`, the solubility kinetic is reported as 43.4 µg/mL (≈ 128 µM). For `COc1cccc(/C=C/C(=O)OCC(=O)NCCCc2ccccc2)c1OC`, the solubility kinetic was 5.6 µg/mL (≈ 14.6 µM). Compound `Cc1ccc2cc3c(nc2c1)N(c1ccccc1)CC3` has a solubility kinetic of less than 0.3 µg/mL. `CN(C1CCCCC1)S(=O)(=O)c1ccc2[nH]c(=O)oc2c1` gave a solubility kinetic greater than 46.6 µg/mL. Compound `Cc1cccc(C(=O)N2CCCC(Nc3ccc(C)c(C)c3)C2)n1` (stereo not given) has a solubility kinetic of 42.1 µg/mL (≈ 130 µM). Compound `COc1ccc(NC(=S)N2CCC(c3ccc(C)cc3)C2)cc1` (stereo not given) has a solubility kinetic of 0.6 µg/mL (≈ 1.84 µM). Compound `CC(=O)N1CCN(c2ccc(C(N)=O)cc2[N+](=O)[O-])CC1` has a solubility kinetic greater than 43.8 µg/mL. For `CC1CCC2(CC1)NC(=O)N(CC(=O)c1ccc3c(c1)OCO3)C2=O` (stereo not given), the solubility kinetic was 3.8 µg/mL (≈ 11 µM). With `Nc1nonc1C(=O)N1CCCCC1` the solubility kinetic was 28.2 µg/mL (≈ 144 µM). In the case of `CCCCCCn1c(N2CCCC2)nc2c1c(=O)n(C)c(=O)n2C`, the solubility kinetic is reported as 48.6 µg/mL (≈ 146 µM). Compound `COC(=O)c1ccc(S(=O)(=O)N2CCCCCC2)n1C` has a solubility kinetic greater than 45.1 µg/mL. With `Cn1c(=O)c2ccccc2n2c(=S)[nH]nc12` the solubility kinetic was greater than 34.8 µg/mL. `NCC(c1ccccc1)c1c[nH]c2ccccc12` (stereo not given) showed a solubility kinetic of 22.1 µg/mL (≈ 93.5 µM). Compound `Cc1ccn2c(NC3CCCC3)c(-c3ccccn3)nc2c1` has a solubility kinetic of 30.6 µg/mL (≈ 105 µM). With `O=C(Nc1cc2c(cc1[N+](=O)[O-])OCCO2)c1cccnc1` the solubility kinetic was 5.1 µg/mL (≈ 16.9 µM). `Cc1cc2nc(Cl)c(Cl)nc2cc1C` gave a solubility kinetic of 0.6 µg/mL (≈ 2.64 µM). Work on `CCCCCn1c(C)c2c(OCC)cccc(=O)c2c1C` yielded a solubility kinetic of 9.4 µg/mL (≈ 32.7 µM).

— PubChem BioAssay AID1996
